Measured values published in patent publication US9603896B2, “Peptide compounds and methods of production and use thereof” (priority 2012, dated 2017).
Ends that are not written are not given here.

Tested on: P. aeruginosa (ATCC® 27853™)
Assay: Pseudomonas keratitis model in the mouse eye
Assay type: in vivo
Details: topical, doses of 10 and 20 mg/ml
Procedure: A circular wound was created on the mouse cornea by removing the epithelium and infected with 10^5 colony forming units (CFU) of P. aeruginosa (ATCC® 27853™ (American Type Culture Collection, Manassas, Va.)). Infected wounds were treated with saline (0.9% sodium chloride, vehicle control) or saline containing indicated concentrations of peptide every 15 minutes for 2 hours, then every 30 minutes for 3 hours on the first day. Infected wounds were treated twice on the second day and once on the third day. Mice were killed at 48 hours post-infection, and CFU/eye were quantified. The means were plotted and are representative of 5 to 9 mice per group. Mann Whitney test was performed for each group as compared to the saline control group. *P=0.014.
A circular wound (2 mm) was created on the mouse cornea by removing the epithelium and infecting the wound with 10^5 CFU of P. aeruginosa (ATCC® 27853™ (American Type Culture Collection, Manassas, Va.)). Infected wounds were treated with saline or saline containing indicated concentrations of peptide every 15 minutes for 2 hours, then every 30 minutes for 3 hours on the first day. Infected wounds were treated twice on the second day and once on the third day. Mice were killed at 48 hours post-infection, and the colony forming units per eye (CFU/eye) were quantified. The means are plotted and are representative of 5 to 9 mice per group. Mann Whitney test was performed for each group as compared to the saline control group.
For FIGS. 15-17, in vivo bactericidal activity of the peptides was also investigated using the standard Pseudomonas keratitis model in the mouse eye (FIGS. 15-17). Peptides 120-146QR-5RMP (SEQ ID NO:32), 120-146WH (SEQ ID NO:31), and 120-146WR (SEQ ID NO: 30) were applied topically at doses of 2, 5, 10, and 20 mg/ml to the wounded cornea that had been infected with 10^5 CFU of Pseudomonas aeruginosa. The efficacies of the peptides were compared to treatment with the vehicle control. Mice were euthanized at 48 hours post infection, and the CFU/eye were quantified.

GTRCQVAGWGSWHSGGRLSRFPRFVNV [Peptide 120-146WH]
CFU/eye at 48 hours post infection vs saline: significantly reduced the CFU/eye
